Measurements as given in PMC9331716, “Nucleoside Transport and Nucleobase Uptake Null Mutants in Leishmania mexicana for the Routine Expression and Characterization of Purine and Pyrimidine Transporters” (International Journal of Molecular Sciences, 2022).
Values joined by “and” are separate entries in the source; they are usually repeats but may differ in a detail not shown here. Identical values can stand only once.

What was measured:
FurD = system: FurD; design: method as in PMID 17520477; details: FurD in A. nidulans, cited from earlier work
L. mexicana NT1-KO cells = test: Radiolabel transport assay in NT1-KO cells; assay type: cell-based, Leishmania mexicana
Protocol: (§1) Transport assays were performed exactly as described previously. Briefly, 10^7 cells in 100 μL of assay buffer (AB) were mixed with an equal volume of radiolabel at 2× concentration for a preset time. The incubation was terminated by the addition of 700 μL of “Stop solution”, being ice-cold 1 mM solution of unlabelled permeant, followed by immediate centrifugation through an oil layer in a microfuge at 13,000 rpm. This causes the cell pellet to reside under the oil layer and isolated from residual radiolabel in the assay buffer. The tubes were flash-frozen in liquid nitrogen and the bottom tip, containing the cell pellet, cut off and collected in a scintillation tube. Cells were solubilized by gentle shaking after addition of a 2% SDS solution, before the addition of scintillation fluid (Scintilogic U, Lablogic, Sheffield, UK); the tubes were left to stand in the dark overnight before counting in a 300SL Hidex Scintillation Counter (Lablogic). Linear and nonlinear regression analyses were carried out using GraphPad Prism versions 8.0 and higher. […] However, all parameters, including Km, Vmax, Ki, given are the average of at least three separate, independent determinations; errors given are standard errors, unless otherwise specified.

L. mexicana cas9 cells [1] = test: Radiolabel transport assay in cas9 cells; assay type: cell-based, Leishmania mexicana; details: for rate of uptake: cas9 cells
Protocol: as §1

TcrNB2 [2] = target: T1, TcrNB2 (Trypanosoma cruzi, UniProt Q4DHG0); test: Transport assay, TcrNB2 expressed in NT1-KO; assay type: cell-based; details: 50 nM [^3H]-adenosine, 100 nM [^3H]-hypoxanthine, 100 nM [^3H]-uracil; data not shown
T1 sequence (Q4DHG0 1-440): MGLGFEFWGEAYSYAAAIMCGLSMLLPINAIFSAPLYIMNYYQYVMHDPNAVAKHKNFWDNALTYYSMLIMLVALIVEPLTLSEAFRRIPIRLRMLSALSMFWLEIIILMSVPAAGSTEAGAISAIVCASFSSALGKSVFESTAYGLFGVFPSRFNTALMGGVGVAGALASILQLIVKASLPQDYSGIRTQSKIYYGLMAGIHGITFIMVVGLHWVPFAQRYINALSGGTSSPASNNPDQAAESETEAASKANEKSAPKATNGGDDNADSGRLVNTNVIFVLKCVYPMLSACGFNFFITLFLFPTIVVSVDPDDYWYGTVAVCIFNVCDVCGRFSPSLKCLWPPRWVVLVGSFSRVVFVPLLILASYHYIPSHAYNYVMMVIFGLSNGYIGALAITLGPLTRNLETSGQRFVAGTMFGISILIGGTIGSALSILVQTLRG
Protocol: as §1

L. major U1 transporter = target: L. major U1 transporter; design: method as in PMID 15796010; details: unit printed only with the uridine value; cited from earlier work
[3] = system: L. mexicana SUPKO (ΔNT1.1/1.2/2) cells; test: Radiolabel transport assay in SUPKO cells; assay type: cell-based, Leishmania mexicana; details: for rate of uptake: SUPKO cells
Protocol: as §1

[4] = target: Aspergillus nidulans uracil transporter FurD (Aspergillus nidulans, UniProt A6N844); test: Transport assay, FurD expressed in Lmex5FURes; assay type: cell-based
Protocol: as §1

Lmex5FURes cells = test: Radiolabel transport assay in Lmex5FURes cells; assay type: cell-based, Leishmania mexicana
Protocol: as §1

[5] = system: L. mexicana NT3-KO promastigotes; test: Radiolabel transport assay in NT3-KO cells; assay type: cell-based, Leishmania mexicana
Protocol: as §1

TvagENT3 [6] = target: T2, TvagENT3 (Trichomonas vaginalis, UniProt A2E5Q3); test: cell-based
Protocol: as §1

LmexNT1.2 = test: Transport assay, LmexNT1.2 expressed in SUPKO; assay type: cell-based, Leishmania mexicana; details: SUPKO expressing LmexNT1.2, 50 nM radiolabel
Protocol: as §1

TvagENT3 [7] = target: T2, TvagENT3; details: TvagENT3 expressed in T. brucei; cited from earlier work
TcrNB2 [8] = target: T1, TcrNB2; test: Transport assay, TcrNB2 expressed in LmexNT3-KO; assay type: cell-based; details: 1 mM inhibitor, TcrNB2 in NT3-KO; read-out: inhibition of adenine uptake
Protocol: as §1

LmexNT1.1 = test: Transport assay, LmexNT1.1 expressed in SUPKO; assay type: cell-based, Leishmania mexicana; details: SUPKO expressing LmexNT1.1, 50 nM radiolabel
Protocol: as §1

L. mexicana cas9 cells [9] = test: Growth curve of cas9 cells with selection agents; assay type: cell-based, Leishmania mexicana; details: 5 μM tubercidin, 5 μg/mL blasticidin, 20 µg/mL puromycin, 1 µM formycin B
Protocol: The growth rates of the L. mexicana promastigotes were determined in the standard HOMEM medium supplemented with 10% FBS, in 12-well plates, in triplicate. After every 24 h, cells were counted in a sample of the culture, using either a Neubauer hemocytometer chamber (Hawksley, Birmingham, UK) or by a coulter particle counter and size analyzer (Beckman, Brea, CA, USA) to count the cells in triplicate. An average of the triplicate readings was taken and plotted using GraphPad Prism 8 software to obtain the growth curves.

[10] = system: L. mexicana cas9 promastigotes; test: Resazurin (Alamar blue) drug sensitivity assay, cas9 control line; assay type: cell-based; details: Leishmania mexicana, n = 3
Protocol: (§2) The assay is based on the reduction of the dye resazurin (Alamar blue) by live but not dead cells and was performed with various strains of Leishmania mexicana promastigotes, exactly as described. Briefly, doubling dilutions starting at 100 µM were set up over 2 rows of a 96-well plate and 2 × 10^5 cells were added to each well, followed by incubation at 25 °C. After 72 h, 20 µL of 125 µg/mL resazurin solution was added and the plates incubated for a further 24 h. Fluorescence was determined in a FLUOstar OPTIMA plate reader (BMG Labtech, Ortenberg, Germany), reading the fluorescence intensity in arbitrary units (A.U.) at 544 nm wavelength for excitation and 620 nm wavelength for emission. The EC50 values and fluorescence data were determined and plotted to a sigmoid curve with variable slope, using the GraphPad Prism 8 software package. All EC50 values were determined on at least three independent occasions and are presented as average ± SEM.

[11] = system: L. mexicana NT2-KO promastigotes; test: Resazurin (Alamar blue) drug sensitivity assay, NT2-KO line; assay type: cell-based; details: Leishmania mexicana, NT2-KO strain, n = 3
Protocol: as §2

[12] = substrate: O=c1cc[nH]c(=O)[nH]1; test: Transport assay, FurD expressed in Lmex5FURes; assay type: cell-based, Aspergillus nidulans; details: other: FurD in Lmex5FURes, 100 nM [^3H]-uracil over 10 s
Protocol: as §1

[13] = 50 nM radiolabel, listed as [^3H]-adenosine

T2 sequence (A2E5Q3 entry or part of it): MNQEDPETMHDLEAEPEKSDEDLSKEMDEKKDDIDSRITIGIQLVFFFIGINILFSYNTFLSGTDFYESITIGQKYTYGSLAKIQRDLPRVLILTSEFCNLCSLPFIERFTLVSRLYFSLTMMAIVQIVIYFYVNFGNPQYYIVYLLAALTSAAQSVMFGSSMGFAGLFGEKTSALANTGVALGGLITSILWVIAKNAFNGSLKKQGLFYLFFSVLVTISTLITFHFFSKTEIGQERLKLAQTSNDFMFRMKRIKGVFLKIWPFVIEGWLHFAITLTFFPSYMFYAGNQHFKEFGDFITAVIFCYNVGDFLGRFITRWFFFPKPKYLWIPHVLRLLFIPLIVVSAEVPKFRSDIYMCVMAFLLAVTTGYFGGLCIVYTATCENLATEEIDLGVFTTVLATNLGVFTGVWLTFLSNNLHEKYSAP

O=c1cc[nH]c(=O)[nH]1 [uracil]
Km (FurD): 0.45 µM
uptake in NT1-KO compared with cas9 (L. mexicana NT1-KO cells; 100 nM [^3H]-uracil): identical
rate of uptake (L. mexicana cas9 cells [1]; 100 nM radiolabel): 0.00031 ± 0.00002 pmol(10^7 cells)^−1s^−1
effect of TcrNB2 expression on uptake in NT1-KO cells (TcrNB2 [2]): did not increase
Ki (L. major U1 transporter): 320 ± 70 nM
uptake in SUPKO compared with cas9 ([3]; 100 nM [^3H]-uracil, n = 3, p = 0.81): identical
rate of uptake ([3]; 100 nM radiolabel): 0.00032 ± 0.00003 pmol(10^7 cells)^−1s^−1
rate of uptake ([4]; Lmex5FURes expressing FurD clone 2, 100 nM radiolabel): 0.29 ± 0.02 pmol(10^7 cells)^−1s^−1
rate of uptake (Lmex5FURes cells; Lmex5FURes cells, 100 nM radiolabel): 0.00057 ± 0.0001 pmol(10^7 cells)^−1s^−1

Nc1ncnc2c1ncn2[C@@H]1O[C@H](CO)[C@@H](O)[C@H]1O [adenosine]
rate of uptake ([5]; NT3-KO cells, 100 nM radiolabel): 0.55 ± 0.05 pmol(10^7 cells)^−1s^−1
upregulation of uptake rate in NT3-KO relative to cas9 ([5]; adenosine and inosine at 100 nM, separate experiments listed singly, listed as [^3H]-adenosine): 4.0 fold and 6.4 fold
rate of uptake lower in NT1-KO than in cas9 (L. mexicana NT1-KO cells; 50 nM radiolabel): 99.4%
rate of uptake (L. mexicana NT1-KO cells; NT1-KO cells, 50 nM radiolabel): 0.00048 ± 0.00007 pmol(10^7 cells)^−1s^−1
uptake lower in SUPKO than in SUPKO expressing TvagENT3 (TvagENT3 [6]; 50 nM radiolabel): 94.6%
rate of uptake (TvagENT3 [6]; SUPKO expressing TvagENT3, 50 nM radiolabel): 0.0080 ± 0.0004 pmol(10^7 cells)^−1s^−1
inhibition of [^3H]-thymidine uptake (L. mexicana cas9 cells [1]; 0.1 µM [^3H]-thymidine, adenosine concentration and cell line not explicitly printed): fully inhibited
rate of uptake (L. mexicana cas9 cells [1]; [13]): 0.082 ± 0.004 pmol(10^7 cells)^−1s^−1 and 0.081 ± 0.006 pmol(10^7 cells)^−1s^−1
rate of uptake (L. mexicana cas9 cells [1]; 100 nM radiolabel, listed as [^3H]-adenosine): 0.082 ± 0.004 pmol(10^7 cells)^−1s^−1 and 0.086 ± 0.009 pmol(10^7 cells)^−1s^−1
effect of TcrNB2 expression on uptake in NT1-KO cells (TcrNB2 [2]): did not increase
rate of uptake (LmexNT1.2): 0.36 ± 0.03 pmol(10^7 cells)^−1s^−1
Ki (TvagENT3 [7]): 870 ± 150 nM
inhibition at 1000 µM (TcrNB2 [8]): 15.5 ± 11.7%
uptake reduced in SUPKO compared to cas9 ([3]; 50 nM radiolabel): 99%
rate of uptake ([3]; 50 nM radiolabel): 0.00063 pmol(10^7 cells)^−1s^−1
rate of uptake [3, 13]: 0.0006 ± 0.00007 pmol(10^7 cells)^−1s^−1
rate of uptake ([3]; 100 nM radiolabel): 0.00046 ± 0.00002 pmol(10^7 cells)^−1s^−1
rate of uptake (LmexNT1.1): 0.27 ± 0.006 pmol(10^7 cells)^−1s^−1

O=c1[nH]cnc2c([C@@H]3O[C@H](CO)[C@@H](O)[C@H]3O)n[nH]c12 [formycin B]
sensitivity of cas9 cells in growth curve (L. mexicana cas9 cells [9]): confirmed
EC50 [10]: 18 ± 2 nM
EC50 [11]: 63500 ± 1900 nM

O=c1[nH]cc(F)c(=O)[nH]1 [5FU, 5-fluorouracil]
Ki (FurD; unit printed only with the uracil Km): 460 nM
Ki ([4]; FurD in Lmex5FURes, inhibition of [^3H]-uracil uptake): 700 ± 250 nM
uptake in Lmex5FURes control (Lmex5FURes cells; 100 nM [^3H]-5FU, p = 0.27): not significantly different from zero

B1: Aspergillus nidulans uracil transporter FurD (Aspergillus nidulans) (protein)
chain: MRFGRFHLRVEQSRSAFASGNARWTNLDLDPVPRAGRVWGPLSFISYWISDAFNAATWQFASSIIAVGLSWRESLGIVALSFFIISFVIAANGAVGSIYHIPFPVIARASWGFWGSYIAIISRVILAIFWFAIQNVNGANAVKAMISAIWPSFLSMKNTIPQDQGIETNTMIAYMIFWIVQMPFLCIHPNKVRWLFATKSVLVPAAWIAILIWAFVAEGKGALFEQRATVSGSQYSWVWLASMTSVLGNYATLSVNQSDFSRYSRVSAKWQLLYIPLLPVIFTFISFIGIAASSAGWTRYNTPSIPWDPIELISHWDSRAARFFGAFSFALASLGVNISANSISAANDLMALFPTYVDLRRGQIICGVISWALVPWKILESASNFLNFMSAYAIFLGPIAAIMLWDFWLIKNRKYDTVALYQPDTPIYRFNAWLVNWRAVVAFLVGVIPSLPGLSNSVNSRIQVGVGIHPYQFGWLLGFVGTSLVYIALSYGFPVREALIERAVLSDEVYEGREVEGEGVEEGREELGESKREGVGKEKGFAVY
Km [12]: 0.89 ± 0.20 µM
